Measured values taken from ChEMBL document CHEMBL3826884, “Synthesis and biological evaluation of 3-substituted 5-benzylidene-1-methyl-2-thiohydantoins as potent NADPH oxidase (NOX) inhibitors” (Bioorg Med Chem, 2016).

Tests used:
NADPH oxidase 1 = target: T1, NADPH oxidase 1 (Homo sapiens, UniProt Q9Y5S8); assay: Inhibition of human NOX1 expressed in Drosophila DUOX knockdown model assessed as decrease in ROS production by lucigenin chemiluminescence assay
T1 sequence (Q9Y5S8 whole entry): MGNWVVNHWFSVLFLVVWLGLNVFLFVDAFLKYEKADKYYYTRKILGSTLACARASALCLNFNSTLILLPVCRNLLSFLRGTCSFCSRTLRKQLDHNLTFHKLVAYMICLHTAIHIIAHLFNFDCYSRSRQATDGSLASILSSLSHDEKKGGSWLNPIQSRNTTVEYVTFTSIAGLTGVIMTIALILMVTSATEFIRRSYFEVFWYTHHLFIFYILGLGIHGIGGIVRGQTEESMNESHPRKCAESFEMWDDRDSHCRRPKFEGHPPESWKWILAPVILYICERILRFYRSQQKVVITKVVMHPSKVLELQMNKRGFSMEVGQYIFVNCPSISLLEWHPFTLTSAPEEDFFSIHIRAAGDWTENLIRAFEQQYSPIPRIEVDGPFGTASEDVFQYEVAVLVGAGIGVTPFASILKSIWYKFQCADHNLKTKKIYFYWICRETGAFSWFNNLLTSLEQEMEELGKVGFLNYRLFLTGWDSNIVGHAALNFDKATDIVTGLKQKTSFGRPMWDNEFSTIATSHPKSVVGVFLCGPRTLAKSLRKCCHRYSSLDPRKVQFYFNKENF

Homo sapiens = species on record: Homo sapiens; assay: Selectivity ratio of Ki for human NOX1 expressed in Drosophila DUOX knockdown model to Ki for human NOX4 expressed in Drosophila DUOX knockdown model
NADPH oxidase 4 = target: T2, NADPH oxidase 4 (Homo sapiens, UniProt Q9NPH5); assay: Inhibition of human NOX4 expressed in Drosophila DUOX knockdown model assessed as decrease in ROS production by lucigenin chemiluminescence assay
T2 sequence (Q9NPH5 whole entry): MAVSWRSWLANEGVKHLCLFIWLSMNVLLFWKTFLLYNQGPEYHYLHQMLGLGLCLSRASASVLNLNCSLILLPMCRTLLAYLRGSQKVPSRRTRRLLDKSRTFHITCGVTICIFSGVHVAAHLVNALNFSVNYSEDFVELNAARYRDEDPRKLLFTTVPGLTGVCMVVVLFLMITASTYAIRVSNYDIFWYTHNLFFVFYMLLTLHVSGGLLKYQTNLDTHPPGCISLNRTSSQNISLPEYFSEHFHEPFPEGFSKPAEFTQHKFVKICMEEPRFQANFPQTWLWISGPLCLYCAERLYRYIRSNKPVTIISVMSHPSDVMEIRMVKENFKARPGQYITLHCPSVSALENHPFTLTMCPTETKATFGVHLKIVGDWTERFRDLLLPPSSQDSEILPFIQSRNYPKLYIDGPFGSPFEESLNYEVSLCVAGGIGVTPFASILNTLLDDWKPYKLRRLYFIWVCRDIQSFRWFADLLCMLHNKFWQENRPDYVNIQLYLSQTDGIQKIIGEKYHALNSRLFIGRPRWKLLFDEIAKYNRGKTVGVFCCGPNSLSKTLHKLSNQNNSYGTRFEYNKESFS

| SMILES | Ki (NADPH oxidase 1) [µM] | Ratio Ki (Homo sapiens) | Ki (NADPH oxidase 4) [µM] |
| --- | --- | --- | --- |
| CN1C(=S)N(c2ccccc2)C(=O)/C1=C/c1ccc(N(C)C)cc1 | 1.95 | 2.2 | 0.88 |
| Cc1ccc(N2C(=O)/C(=C/c3cccc(O)c3O)N(C)C2=S)cc1 | 50.3 | – | 27 |
| CN1C(=S)N(c2ccccc2)C(=O)/C1=C/c1cccc(O)c1O | 49.7 | – | 24 |
| CN1C(=S)N(c2ccc3c(c2)CCC3)C(=O)/C1=C/c1ccc(N(C)C)cc1 | 8.04 | – | 13.1 |
| CCc1ccc(N2C(=O)/C(=C/c3cccc(O)c3O)N(C)C2=S)cc1 | 27.9 | – | 26.4 |
| CN1C(=S)N(c2cccc(Cl)c2)C(=O)/C1=C/c1cccc(O)c1O | 7.65 | – | 9.31 |
| CN1C(=S)N(c2ccc3c(c2)CCC3)C(=O)/C1=C/c1ccc(O)cc1O | 6.58 | – | 6.83 |
| CCc1ccc(N2C(=O)/C(=C/c3ccc(N(C)C)cc3)N(C)C2=S)cc1 | 4.39 | – | 2.63 |
| CN1C(=S)N(c2ccccc2)C(=O)/C1=C/c1ccc(O)cc1O | 33.8 | – | 27.7 |
| CN1C(=S)N(C2CCCCC2)C(=O)/C1=C/c1cccc(O)c1O | 7.39 | – | 6.35 |
| CCc1ccc(N2C(=O)/C(=C/c3ccc(O)cc3O)N(C)C2=S)cc1 | 8.4 | 3.5 | 2.39 |
| Cc1ccc(N2C(=O)/C(=C/c3ccc(O)cc3O)N(C)C2=S)cc1 | 27.1 | – | 34.6 |

Now from value to compound:

| Ki (NADPH oxidase 1) [µM] | Ratio Ki (Homo sapiens) | Ki (NADPH oxidase 4) [µM] | SMILES |
| --- | --- | --- | --- |
| 6.63 | 2.8 | 2.36 | CN1C(=S)N(c2ccc3c(c2)CCC3)C(=O)/C1=C/c1cccc(O)c1O |
| 26 | – | 37.6 | CN1C(=S)N(C2CCCCC2)C(=O)/C1=C/c1ccc(O)cc1O |
| 12.3 | – | 35.6 | CN1C(=S)N(C2CCCCC2)C(=O)/C1=C/c1ccc(N(C)C)cc1 |
| 0.35 | – | 0.84 | CN1C(=S)N(c2cccc(Cl)c2)C(=O)/C1=C/c1ccc(N(C)C)cc1 |
| 34.5 | – | 33.8 | CN1C(=S)N(c2cccc(Cl)c2)C(=O)/C1=C/c1ccc(O)cc1O |
| 1.02 | – | 2.33 | Cc1ccc(N2C(=O)/C(=C/c3ccc(N(C)C)cc3)N(C)C2=S)cc1 |
